Experimental data reported in PubChem BioAssay AID192 (DTP/NCI, 2004).
“And” between values parts separate entries of the source, which are not always exact repeats. Equal entries are not always repeated. Inconclusive results and toxic doses are left out. Square brackets hold non-standard residues; d marks the D form. Peptide text beside a SMILES is read from it. * marks the point of attachment. ξ: configuration not given here. Cbz = O=C(OCc1ccccc1)*; ξI = CCC(C)C(N)C(=O)O; Bn = c1ccc(C*)cc1

Tested on: BDF1 mice, B16 melanoma ip, median survival T/C
Test: NCI In Vivo Anticancer Drug Screen. Data for tumor model B16 Melanoma (intraperitoneal) in B6D2F1 (BDF1) mice
Conditions: endpoint: median survival time, higher = longer survival
Method in brief: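 Compounds were tested in mice carrying transplantable tumors. Survival or tumor size was recorded, and each value is the treated-group measurement (T) divided by that of the vehicle-treated control group (C).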

[1] = dose: 50.0 mg/kg/injection, schedule: Q04DX003 (ip), vehicle: saline with Tween-80
[2] = dose: 100.0 mg/kg/injection, schedule: Q04DX003 (ip), vehicle: saline with Tween-80
[3] = dose: 40.0 mg/kg/injection, schedule: Q01DX009 (ip), vehicle: saline with Tween-80
[4] = dose: 12.5 mg/kg/injection, schedule: Q01DX009 (ip), vehicle: saline
[5] = dose: 25.0 mg/kg/injection, schedule: Q01DX009 (ip), vehicle: saline
[6] = dose: 50.0 mg/kg/injection, schedule: Q01DX009 (ip), vehicle: saline
[7] = dose: 100.0 mg/kg/injection, schedule: Q01DX009 (ip), vehicle: saline
[8] = dose: 100.0 mg/kg/injection, schedule: Q04DX003 (ip), vehicle: Klucel (hydroxypropylcellulose) (HPC)
[9] = dose: 25.0 mg/kg/injection, schedule: Q01DX009 (ip), vehicle: Klucel (hydroxypropylcellulose) (HPC)
[10] = dose: 50.0 mg/kg/injection, schedule: Q01DX009 (ip), vehicle: Klucel (hydroxypropylcellulose) (HPC)
[11] = dose: 100.0 mg/kg/injection, schedule: Q01DX009 (ip), vehicle: Klucel (hydroxypropylcellulose) (HPC)
[12] = dose: 50.0 mg/kg/injection, schedule: Q01DX009 (ip), vehicle: water
[13] = dose: 25.0 mg/kg/injection, schedule: Q01DX009 (ip), vehicle: saline with Tween-80
[14] = dose: 50.0 mg/kg/injection, schedule: Q01DX009 (ip), vehicle: saline with Tween-80
[15] = dose: 100.0 mg/kg/injection, schedule: Q01DX009 (ip), vehicle: saline with Tween-80
[16] = dose: 200.0 mg/kg/injection, schedule: Q01DX009 (ip), vehicle: Klucel (hydroxypropylcellulose) (HPC)
[17] = dose: 400.0 mg/kg/injection, schedule: Q01DX009 (ip), vehicle: Klucel (hydroxypropylcellulose) (HPC)
[18] = dose: 200.0 mg/kg/injection, schedule: Q04DX003 (ip), vehicle: Klucel (hydroxypropylcellulose) (HPC)
[19] = dose: 400.0 mg/kg/injection, schedule: Q04DX003 (ip), vehicle: Klucel (hydroxypropylcellulose) (HPC)
[20] = dose: 200.0 mg/kg/injection, schedule: Q01DX009 (ip), vehicle: saline with Tween-80
[21] = dose: 400.0 mg/kg/injection, schedule: Q01DX009 (ip), vehicle: saline with Tween-80

C(=C\c1cnc2ccccc2n1)/c1ccc2c(c1)OCO2 was tested, and the T/C (dose: 75.0 mg/kg/injection, schedule: Q01DX009 (ip), vehicle: Klucel (hydroxypropylcellulose) (HPC)) was 105 % of control and the T/C (dose: 150.0 mg/kg/injection, schedule: Q01DX009 (ip), vehicle: Klucel (hydroxypropylcellulose) (HPC)) was 94 % of control.
In the case of CN(C)/N=C\c1ccccc1Cl, the T/C [1] was 104 % of control and the T/C [2] was 102 % of control.
In the case of COc1ccccc1CC(C)N (stereo not given), the T/C (dose: 20.0 mg/kg/injection, schedule: Q01DX009 (ip), vehicle: saline with Tween-80) was 97 % of control and the T/C [3] was 95 % of control.
COc1cc(C(=O)OC(C)CN2CCN(C(=O)c3cc(OC)c(OC)c(OC)c3)CC2)cc(OC)c1OC (stereo not given) was tested, and the T/C [4] was 116 % of control, the T/C [5] was 105 % of control and the T/C [6] was 100 % of control. For the same compound, the T/C [7] was 110 % of control.
With O=C(NO)c1ccccc1 the T/C (dose: 12.5 mg/kg/injection, schedule: Q01DX009 (ip), vehicle: suspension in saline) was 94 % of control, the T/C (dose: 25.0 mg/kg/injection, schedule: Q01DX009 (ip), vehicle: suspension in saline) was 95 % of control and the T/C [6] was 97 % of control. The T/C (dose: 50.0 mg/kg/injection, schedule: Q01DX009 (ip), vehicle: suspension in saline) was 92 % of control, the T/C [1] was 107 % of control and the T/C [7] was 97 % of control. The T/C (dose: 100.0 mg/kg/injection, schedule: Q01DX009 (ip), vehicle: suspension in saline) was 92 % of control, the T/C [2] was 111 % of control and the T/C (dose: 178.0 mg/kg/injection, schedule: Q04DX003 (ip), vehicle: saline with Tween-80) was 102 % of control. For the same compound, the T/C (dose: 200.0 mg/kg/injection, schedule: Q01DX009 (ip), vehicle: saline) was 107 % of control, the T/C (dose: 200.0 mg/kg/injection, schedule: Q04DX003 (ip), vehicle: saline with Tween-80) was 108 % of control and the T/C (dose: 400.0 mg/kg/injection, schedule: Q04DX003 (ip), vehicle: saline with Tween-80) was 100 % of control. The T/C (dose: 600.0 mg/kg/injection, schedule: Q04DX003 (ip), vehicle: saline with Tween-80) was 100 % of control.
In the case of Oc1ccc2ccc3[nH]cnc3c2c1, the T/C (dose: 50.0 mg/kg/injection, schedule: Q04DX003 (ip), vehicle: Klucel (hydroxypropylcellulose) (HPC)) was 100 % of control and the T/C [8] was 105 % of control.
With O=C(O)c1ccc(OC(F)(F)C(F)Cl)cc1 (stereo not given) the T/C [9] was 106 % of control, the T/C [10] was 100 % of control and the T/C [11] was 106 % of control.
In the case of Oc1cc2c3c(c1)c1cc4c(cc1c[n+]3CC2)OCO4, the T/C (dose: 1.56 mg/kg/injection, schedule: Q01DX009 (ip), vehicle: distilled water + Tween-80) was 117 % of control, the T/C (dose: 3.12 mg/kg/injection, schedule: Q01DX009 (ip), vehicle: water) was 115 % of control and the T/C (dose: 3.13 mg/kg/injection, schedule: Q01DX009 (ip), vehicle: distilled water + Tween-80) was 113 % of control. For the same compound, the T/C (dose: 6.25 mg/kg/injection, schedule: Q01DX009 (ip), vehicle: water) was 118 % of control, the T/C (dose: 25.0 mg/kg/injection, schedule: Q01DX009 (ip), vehicle: distilled water + Tween-80) was 119 % of control and the T/C [12] was 124 % of control.
In the case of C1CNC2NCCNC2N1 (stereo not given), the T/C (dose: 6.25 mg/kg/injection, schedule: Q01DX009 (ip), vehicle: saline) was 114 % of control, the T/C [4] was 120 % of control and the T/C [5] was 105 % of control. The T/C [7] was 109 % of control.
In the case of Cc1ccc(Cl)cc1NC(=O)c1ccc([N+](=O)[O-])cc1, the T/C [13] was 112 % of control, the T/C [14] was 110 % of control and the T/C [15] was 96 % of control.
Cc1cc2c(cc1C)NC(=O)C(C)CN2 (stereo not given) was tested, and the T/C [11] was 90 % of control, the T/C [16] was 88 % of control and the T/C [17] was 87 % of control.
With Cc1cc(C)c(COCc2cc(C)c(C)cc2C)cc1C the T/C [12] was 95 % of control and the T/C (dose: 100.0 mg/kg/injection, schedule: Q01DX009 (ip), vehicle: water) was 95 % of control.
CSc1nc(N)cc(NC(=O)CCl)n1 was tested, and the T/C (dose: 6.25 mg/kg/injection, schedule: Q01DX009 (ip), vehicle: saline with Tween-80) was 109 % of control, the T/C (dose: 12.5 mg/kg/injection, schedule: Q01DX009 (ip), vehicle: saline with Tween-80) was 97 % of control and the T/C [13] was 89 % of control and 118 % of control. The T/C [14] was 97 % of control and 120 % of control.
In the case of C=CC(C(=O)OCC)C(O)CCC (stereo not given), the T/C [10] was 121 % of control, the T/C [11] was 100 % of control and the T/C [16] was 101 % of control.
For [Cl][Pt+2][Cl].[NH-]c1cc(Cl)c(Cl)cc1[NH-], the T/C [3] was 114 % of control, the T/C (dose: 80.0 mg/kg/injection, schedule: Q01DX009 (ip), vehicle: saline with Tween-80) was 118 % of control and the T/C (dose: 320.0 mg/kg/injection, schedule: Q01DX009 (ip), vehicle: saline with Tween-80) was 113 % of control.
With COC(=O)C(CC(C)C)NC(=O)C(N)Cc1ccc(OCc2ccccc2)cc1 (stereo not given) (H-Tyr(Bn)-Leu-OMe; configuration not given here) the T/C (dose: 12.5 mg/kg/injection, schedule: Q01DX009 (ip), vehicle: Klucel (hydroxypropylcellulose) (HPC)) was 110 % of control and the T/C [9] was 96 % of control.
CCOC(=O)NC(C)(C)CN(CCCO)C(=O)OCC was tested, and the T/C [8] was 100 % of control, the T/C [18] was 100 % of control and the T/C [19] was 97 % of control.
With NC(Cc1ccc(Cl)cc1)C(=O)O (stereo not given) the T/C [15] was 123 % of control, the T/C [20] was 115 % of control and the T/C [21] was 104 % of control.
For COc1cccc(CNc2cccc([N+](=O)[O-])c2)c1OC, the T/C [11] was 100 % of control, the T/C [16] was 110 % of control and the T/C [17] was 105 % of control.
O=C1c2c(O)cccc2-c2nn(CCNCCO)c3ccc(NCCNCCO)c1c23 was tested, and the T/C (dose: 2.75 mg/kg/injection, schedule: Q01DX009 (ip), vehicle: water) was 306 % of control and the T/C (dose: 5.5 mg/kg/injection, schedule: Q01DX009 (ip), vehicle: water) was 306 % of control.
For Nc1ncnc(N)c1N=O, the T/C [6] was 118 % of control and the T/C [7] was 115 % of control.
O=C(O)/C=C/C(=O)NCc1ccco1 was tested, and the T/C [11] was 102 % of control and the T/C [16] was 86 % of control.
For Nc1ccccc1S(=O)(=O)Nc1ccccc1, the T/C [11] was 96 % of control, the T/C [16] was 107 % of control and the T/C [17] was 110 % of control.
NC(=O)C(N)=O was tested, and the T/C [11] was 103 % of control and the T/C [16] was 96 % of control.
With COc1ccc(N=C(C(=Nc2ccc(OC)cc2)c2ccccc2)c2ccccc2)cc1 the T/C [8] was 102 % of control, the T/C [18] was 103 % of control and the T/C [19] was 101 % of control.
In the case of O=[N+]([O-])c1cc([N+](=O)[O-])c(/C=C/c2ccccc2)c([N+](=O)[O-])c1/C=C/c1ccccc1, the T/C [11] was 105 % of control, the T/C [8] was 102 % of control and the T/C [16] was 107 % of control. For the same compound, the T/C [18] was 94 % of control, the T/C [17] was 94 % of control and the T/C [19] was 89 % of control.
In the case of CCC(C)C(NC(=O)CNC(=O)CNC(=O)OCc1ccccc1)C(=O)O (stereo not drawn) (Cbz-Gly-Gly-[ξI]-OH), the T/C [14] was 94 % of control, the T/C [15] was 92 % of control and the T/C [20] was 91 % of control. For the same compound, the T/C [21] was 86 % of control.
With COC(=O)C(CSCc1ccccc1)NC(=O)OCc1ccccc1 (stereo not given) the T/C [10] was 87 % of control.
For CCCCCCCCC(O)CCCC (stereo not given), the T/C [11] was 103 % of control, the T/C [16] was 95 % of control and the T/C [17] was 103 % of control.
With C=CCNC(=O)/C=C/C(=O)NCC=C the T/C (dose: 25.0 mg/kg/injection, schedule: Q04DX003 (ip), vehicle: saline with Tween-80) was 123 % of control and the T/C [2] was 121 % of control.
With CC1=NN(c2ccccc2)C(=O)C1CC1C(=O)N(c2ccccc2)N=C1C (stereo not given) the T/C [15] was 95 % of control, the T/C [20] was 95 % of control and the T/C [21] was 89 % of control.
